Source: patent publication US12371428B2 (Exelixis, Inc., priority 2019, dated 2025)

Assays:
[1] = biological target: Met (phospho-Met, HGF-stimulated PC-3 prostate cancer cells) (Homo sapiens (Human), UniProt P08581); assay: Met autophosphorylation ELISA in PC-3 cells (Example F); assay type: cell-based; details: cellular activity; Met autophosphorylation ELISA in PC-3 cells; read-out: c-Met IC50
How it was run: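 Serum-starved (3 h) PC-3 cells were treated 1 h with compounds (8-point curve, 0.3% DMSO), then stimulated with 100 ng/mL human HGF for 10 min. Lysate phospho-Met (panTyr) was measured by sandwich ELISA, normalised to DMSO and reference-inhibitor controls. IC50 came from 4-parameter logistic fit.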

[2] = biological target: KDR (phospho-KDR, VEGF165-stimulated HUVEC cells) (Homo sapiens (Human), UniProt P35968); assay: KDR autophosphorylation ELISA in HUVEC cells (Example G); assay type: cell-based; details: cellular activity; KDR autophosphorylation ELISA in HUVEC cells
Sequence of KDR (phospho-KDR, VEGF165-stimulated HUVEC cells) (P35968 20-1356): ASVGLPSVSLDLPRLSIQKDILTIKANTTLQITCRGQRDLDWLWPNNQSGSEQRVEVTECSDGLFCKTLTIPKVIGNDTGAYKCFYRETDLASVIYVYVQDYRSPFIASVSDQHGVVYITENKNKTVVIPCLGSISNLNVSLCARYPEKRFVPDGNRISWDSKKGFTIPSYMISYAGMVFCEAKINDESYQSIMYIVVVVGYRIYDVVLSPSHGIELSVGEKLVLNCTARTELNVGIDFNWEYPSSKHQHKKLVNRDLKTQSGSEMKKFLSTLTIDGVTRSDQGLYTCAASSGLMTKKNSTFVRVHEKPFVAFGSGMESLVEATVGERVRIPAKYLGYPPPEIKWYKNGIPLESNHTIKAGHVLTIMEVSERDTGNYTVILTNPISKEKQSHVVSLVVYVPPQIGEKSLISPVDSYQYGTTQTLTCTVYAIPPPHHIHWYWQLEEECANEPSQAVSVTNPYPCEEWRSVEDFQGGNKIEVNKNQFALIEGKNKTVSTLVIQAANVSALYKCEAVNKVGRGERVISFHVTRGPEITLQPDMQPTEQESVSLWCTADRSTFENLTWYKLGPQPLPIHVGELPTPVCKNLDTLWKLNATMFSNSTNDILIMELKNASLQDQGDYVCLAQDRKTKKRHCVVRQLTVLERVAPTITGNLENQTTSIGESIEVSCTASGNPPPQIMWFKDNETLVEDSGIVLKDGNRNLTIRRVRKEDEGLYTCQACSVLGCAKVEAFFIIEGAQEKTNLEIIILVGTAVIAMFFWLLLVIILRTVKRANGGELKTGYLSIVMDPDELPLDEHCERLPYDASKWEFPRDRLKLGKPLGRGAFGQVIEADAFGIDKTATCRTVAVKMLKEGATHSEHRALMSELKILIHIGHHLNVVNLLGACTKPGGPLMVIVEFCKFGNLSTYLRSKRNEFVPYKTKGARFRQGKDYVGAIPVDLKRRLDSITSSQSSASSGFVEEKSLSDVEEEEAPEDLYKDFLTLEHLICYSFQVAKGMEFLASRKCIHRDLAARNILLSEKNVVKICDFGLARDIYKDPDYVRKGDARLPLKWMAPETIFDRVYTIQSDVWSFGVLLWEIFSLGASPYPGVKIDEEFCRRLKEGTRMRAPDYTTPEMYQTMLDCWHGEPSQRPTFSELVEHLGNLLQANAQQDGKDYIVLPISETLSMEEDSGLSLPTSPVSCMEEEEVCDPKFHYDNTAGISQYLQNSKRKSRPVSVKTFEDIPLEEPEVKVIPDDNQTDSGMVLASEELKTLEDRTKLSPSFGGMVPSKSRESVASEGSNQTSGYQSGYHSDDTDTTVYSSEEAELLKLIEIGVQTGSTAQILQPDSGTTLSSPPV
How it was run: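 Read-out: phospho-KDR in cell lysates by DuoSet IC ELISA, normalised between VEGF-stimulated DMSO wells (100%) and unstimulated wells (0%). Human endothelial cells were starved overnight in serum-free medium, exposed to compound for 1 h, and then pulsed with 100 ng/mL VEGF165 for 5 min.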

Sequence of Met (phospho-Met, HGF-stimulated PC-3 prostate cancer cells) (P08581 25-1390): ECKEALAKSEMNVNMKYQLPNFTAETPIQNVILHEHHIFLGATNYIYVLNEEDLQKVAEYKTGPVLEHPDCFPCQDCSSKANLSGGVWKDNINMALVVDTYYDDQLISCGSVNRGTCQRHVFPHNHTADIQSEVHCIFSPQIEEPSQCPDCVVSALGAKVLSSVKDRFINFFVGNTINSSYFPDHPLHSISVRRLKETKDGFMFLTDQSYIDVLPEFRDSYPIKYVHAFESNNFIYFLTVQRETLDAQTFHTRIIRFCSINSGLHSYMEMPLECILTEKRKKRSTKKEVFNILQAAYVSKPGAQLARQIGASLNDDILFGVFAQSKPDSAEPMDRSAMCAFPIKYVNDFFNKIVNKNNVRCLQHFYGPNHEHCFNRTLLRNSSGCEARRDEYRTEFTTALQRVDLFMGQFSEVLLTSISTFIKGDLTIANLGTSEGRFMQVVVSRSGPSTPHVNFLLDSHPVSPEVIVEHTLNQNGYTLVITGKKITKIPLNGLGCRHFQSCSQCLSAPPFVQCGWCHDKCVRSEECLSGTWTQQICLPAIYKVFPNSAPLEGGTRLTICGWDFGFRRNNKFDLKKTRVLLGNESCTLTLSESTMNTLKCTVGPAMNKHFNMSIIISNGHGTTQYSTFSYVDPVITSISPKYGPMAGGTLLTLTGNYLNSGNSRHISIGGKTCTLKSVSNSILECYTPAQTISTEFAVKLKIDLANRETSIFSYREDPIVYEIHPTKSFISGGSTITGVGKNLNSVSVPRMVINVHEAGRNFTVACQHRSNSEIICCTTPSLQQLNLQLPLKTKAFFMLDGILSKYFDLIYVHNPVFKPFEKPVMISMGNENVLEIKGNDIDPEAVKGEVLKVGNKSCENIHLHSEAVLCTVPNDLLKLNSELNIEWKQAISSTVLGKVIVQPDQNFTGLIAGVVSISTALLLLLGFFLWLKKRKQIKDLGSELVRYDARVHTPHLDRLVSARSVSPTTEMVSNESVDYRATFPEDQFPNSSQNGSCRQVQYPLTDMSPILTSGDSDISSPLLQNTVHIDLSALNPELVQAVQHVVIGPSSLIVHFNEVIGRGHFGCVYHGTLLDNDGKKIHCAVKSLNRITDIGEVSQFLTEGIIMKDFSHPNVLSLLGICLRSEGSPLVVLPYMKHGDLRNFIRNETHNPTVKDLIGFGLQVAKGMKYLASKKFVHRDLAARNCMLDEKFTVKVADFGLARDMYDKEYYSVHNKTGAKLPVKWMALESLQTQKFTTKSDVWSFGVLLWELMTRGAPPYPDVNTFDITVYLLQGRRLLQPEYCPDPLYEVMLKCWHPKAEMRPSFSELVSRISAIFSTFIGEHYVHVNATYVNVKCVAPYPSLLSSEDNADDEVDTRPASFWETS

| SMILES | IC50 [1] [nM] | IC50 [2] [nM] |
| --- | --- | --- |
| COc1cc2nccc(Oc3ccc(NC(=O)c4c(C)nc(C)c(-c5ccc(F)cc5)c4O)cc3F)c2nc1OC [Compound 154, N-[4-[(6,7-Dimethoxy-1,5-naphthyridin-4-yl)oxy]-3-fluorophenyl]-5-(4-fluorophenyl)-4-hydroxy-2,6-dimethylpyridine-3-carboxamide] | < 100 | < 100 |
| COc1cnc2c(Oc3ccc(NC(=O)c4nnc(C)c(-c5ccc(F)cc5)c4OC)cc3)ccnc2c1 [Compound 515, 5-(4-fluorophenyl)-4-methoxy-N-[4-[(7-methoxy-1,5-naphthyridin-4-yl)oxy]phenyl]-6-methylpyridazine-3-carboxamide] | < 100 | < 100 |
| C=C(C)c1cnc2c(Oc3ccc(NC(=O)c4c(C)cc(C)n(-c5ccc(F)cc5)c4=O)cc3F)ccnc2c1 [Compound 457, 1-(4-fluorophenyl)-N-[3-fluoro-4-[(7-prop-1-en-2-yl-1,5-naphthyridin-4-yl)oxy]phenyl]-4,6-dimethyl-2-oxopyridine-3-carboxamide] | < 100 | < 100 |
| COc1cc2nccc(Oc3ccc(NC(=O)c4c(C)n(C)c(C)c(-c5ccc(F)cc5)c4=O)cc3)c2nc1OC [Compound 523, N-[4-[(6,7-dimethoxy-1,5-naphthyridin-4-yl)oxy]phenyl]-5-(4-fluorophenyl)-1,2,6-trimethyl-4-oxopyridine-3-carboxamide] | < 100 | > 300 |
| CCc1nc(C)c(-c2ccc(F)cc2C)c(O)c1C(=O)Nc1ccc(Oc2ccnc3ccc(OC)nc23)cc1 [Compound 526, 2-ethyl-5-(4-fluoro-2-methylphenyl)-4-hydroxy-N-[4-[(6-methoxy-1,5-naphthyridin-4-yl)oxy]phenyl]-6-methylpyridine-3-carboxamide] | < 100 | < 100 |
| COc1cc2nccc(Oc3ccc(NC(=O)c4c(C)n(C)c(C)c(-c5ccc(F)cc5)c4=O)cc3F)c2nc1OC [Compound 511, N-[4-[(6,7-dimethoxy-1,5-naphthyridin-4-yl)oxy]-3-fluorophenyl]-5-(4-fluorophenyl)-1,2,6-trimethyl-4-oxopyridine-3-carboxamide] | < 100 | 100 to 300 |
| COc1cc2nccc(Oc3ccc(NC(=O)c4nn(C)c(C)c(-c5ccc(F)cc5C)c4=O)cc3)c2nc1OC [Compound 517, N-[4-[(6,7-dimethoxy-1,5-naphthyridin-4-yl)oxy]phenyl]-5-(4-fluoro-2-methylphenyl)-1,6-dimethyl-4-oxopyridazine-3-carboxamide] | < 100 | < 100 |
| COCCOc1cnc2c(Oc3ccc(NC(=O)c4c(C)nc(C)c(-c5ccc(F)cc5)c4O)cc3F)ccnc2c1 [Compound 555, N-[3-Fluoro-4-[[7-(2-methoxyethoxy)-1,5-naphthyridin-4-yl]oxy]phenyl]-5-(4-fluorophenyl)-4-hydroxy-2,6-dimethylpyridine-3-carboxamide] | < 100 | < 100 |
| COCCOc1ccc2nccc(Oc3ccc(NC(=O)c4cnc(C)c(-c5ccc(F)cc5)c4O)cc3F)c2n1 [Compound 348, N-[3-fluoro-4-[[6-(2-methoxyethoxy)-1,5-naphthyridin-4-yl]oxy]phenyl]-5-(4-fluorophenyl)-4-hydroxy-6-methylpyridine-3-carboxamide] | < 100 | < 100 |
| COc1cc2nccc(Oc3ccc(NC(=O)c4cc(C)nn(-c5ccc(F)cc5)c4=O)cc3F)c2nc1OC [Compound 519, N-[4-[(6,7-dimethoxy-1,5-naphthyridin-4-yl)oxy]-3-fluorophenyl]-2-(4-fluorophenyl)-6-methyl-3-oxopyridazine-4-carboxamide] | < 100 | < 100 |
| COCCOc1cc2nccc(Oc3ccc(NC(=O)c4c(COC)nc(C)c(-c5ccc(F)cc5)c4O)cc3F)c2nc1OC [Compound 482, N-[3-fluoro-4-[[6-methoxy-7-(2-methoxyethoxy)-1,5-naphthyridin-4-yl]oxy]phenyl]-5-(4-fluorophenyl)-4-hydroxy-2-(methoxymethyl)-6-methylpyridine-3-carboxamide] | < 100 | < 100 |
| CCn1cc(C(=O)Nc2ccc(Oc3ccnc4cc(OC)c(OC)nc34)c(F)c2)c(=O)c(-c2ccc(F)cc2)c1CF [Compound 562, N-[4-[(6,7-Dimethoxy-1,5-naphthyridin-4-yl)oxy]-3-fluorophenyl]-1-ethyl-6-(fluoromethyl)-5-(4-fluorophenyl)-4-oxopyridine-3-carboxamide] | < 100 | 100 to 300 |
| C=C(C)c1cnc2c(Oc3ccc(NC(=O)c4cnc(C)c(-c5ccc(F)cc5C)c4O)cc3)ccnc2c1 [Compound 448, 5-(4-fluoro-2-methylphenyl)-4-hydroxy-6-methyl-N-[4-[(7-prop-1-en-2-yl-1,5-naphthyridin-4-yl)oxy]phenyl]pyridine-3-carboxamide] | < 100 | < 100 |
| COCCOc1nc2c(Oc3ccc(NC(=O)c4cn(C)c(CF)c(-c5ccc(F)cc5)c4=O)cc3F)ccnc2cc1OC [Compound 557, N-[3-Fluoro-4-[[7-methoxy-6-(2-methoxyethoxy)-1,5-naphthyridin-4-yl]oxy]phenyl]-6-(fluoromethyl)-5-(4-fluorophenyl)-1-methyl-4-oxopyridine-3-carboxamide] | < 100 | 100 to 300 |
| COc1cnc2c(Oc3ccc(NC(=O)c4nn(C)c(C)c(-c5ccc(F)cc5C)c4=O)cc3F)ccnc2c1 [Compound 513, N-[3-fluoro-4-[(7-methoxy-1,5-naphthyridin-4-yl)oxy]phenyl]-5-(4-fluoro-2-methylphenyl)-1,6-dimethyl-4-oxopyridazine-3-carboxamide] | < 100 | < 100 |
| CCn1cc(C(=O)Nc2ccc(Oc3ccnc4cc(OC)cnc34)c(F)c2)c(=O)c(-c2ccc(F)cc2)c1CF [Compound 559, 1-Ethyl-N-[3-fluoro-4-[(7-methoxy-1,5-naphthyridin-4-yl)oxy]phenyl]-6-(fluoromethyl)-5-(4-fluorophenyl)-4-oxopyridine-3-carboxamide] | < 100 | > 300 |
| COCc1nc(C)c(-c2ccc(F)cc2C)c(O)c1C(=O)Nc1ccc(Oc2ccnc3ccc(OC)nc23)cc1 [Compound 516, 5-(4-fluoro-2-methylphenyl)-4-hydroxy-2-(methoxymethyl)-N-[4-[(6-methoxy-1,5-naphthyridin-4-yl)oxy]phenyl]-6-methylpyridine-3-carboxamide] | < 100 | 100 to 300 |
| C=C(C)c1cnc2c(Oc3ccc(NC(=O)c4cnc(C)c(-c5ccc(F)cc5C)c4O)cc3F)ccnc2c1 [Compound 450, 5-(4-fluoro-2-methylphenyl)-N-[3-fluoro-4-[(7-prop-1-en-2-yl-1,5-naphthyridin-4-yl)oxy]phenyl]-4-hydroxy-6-methylpyridine-3-carboxamide] | < 100 | < 100 |
| COc1cnc2c(Oc3ccc(NC(=O)c4c(C)n(C)c(C)c(-c5ccc(F)cc5)c4=O)cc3F)ccnc2c1 [Compound 508, N-[3-fluoro-4-[(7-methoxy-1,5-naphthyridin-4-yl)oxy]phenyl]-5-(4-fluorophenyl)-1,2,6-trimethyl-4-oxopyridine-3-carboxamide] | < 100 | > 300 |
